Reference: patent US9307761B2, “Microbial composition” (Rohm and Haas Company, priority 2011, dated 2016)

Legend:
Format in all cases: cell-based
[1] = tested on: Escherichia coli (10536 strain); test: 15 seconds contact kill assay of actives in water, mean bacterial survival NMBS; details: for NMBS: alone, 15 seconds contact
[2] = tested on: Escherichia coli (E. coli—ATCC #10536); test: Automated assessment of efficacy in model surfactant medium (2.85% sodium cocoyl glycinate and 1.85% sodium lauroamphoacetate), 15 seconds exposure, delta OD450/OD590; details: for MBC: Escherichia coli, ATCC10536, 15 s, in 2.85% sodium cocoyl glycinate + 1.85% sodium lauroamphoacetate solution at pH 10, E. coli, read-out: MBC (minimum biocidal concentration); for No. of replicates showing growth (out of 4) / Δ OD 450 nm = OD450 (time = 16 hours) − OD450 (time zero), Mean / Δ OD 590 nm OD590 (time = 16 hours) − OD590 (time zero), Mean / MBC of phenol: model surfactant solution; for No. of replicates showing growth (out of 4) / Δ OD 450 nm = OD450 (time = 16 hours) − OD450 (time zero), Mean / Δ OD 590 nm OD590 (time = 16 hours) − OD590 (time zero), Mean: 15 s exposure; for MBC of phenol: phenol alone, complete bacterial kill against E. coli
Protocol: Micobiocidal Activity of Actives as Per the Invention in a Model Surfactant Medium Test Methodology for Automated Assessment of Efficacy in Surfactant Base
Solutions were prepared such that the concentrations of the surfactant components and test actives were 1.1×the final desired concentration in order to allow for dilution with the bacterial inoculum in the test. The solutions were manually adjusted to […] by dropwise addition of sodium hydroxide solution, as measured with a pH meter at ambient temperature.
Tests were conducted using standard microtiter plate assays using an automated liquid handling system, 270 μl of the surfactant test solution was pipetted into each well of the microtitre plate and 30 μl of the bacterial suspension was then added. After exactly 15 seconds of bacterial exposure, a 30 μl volume of bacterial cells was withdrawn and transferred to 270 μl of D/E quench solution. After 5 minutes in the D/E quench, the optical density (OD) was measured for each plate in turn at two specific wavelengths (450 nm and 590 nm). These provide a dual check of antimicrobial activity, as the OD450 reading is specific for the yellow colour of D/E quench when bacterial growth is observed, whereas OD590 is specific for the initial purple colour of the D/E quench which is retained if no bacterial growth is observed. After the time zero OD measurements, plates were then incubated at 37° C. overnight (16 hours) before repeating the OD measurements. Delta OD values were calculated by subtracting […]. Bacterial growth is observed as art increase in OD450 and a decrease in ΔOD590. To identify antibacterially efficacious systems (those preventing appreciable bacterial growth after incubation), the following threshold changes in OD readings have been adopted: if (1). OD450 increases by less than 0.2 absorbance unit on incubation and (2). OD590 decreases by less than 0.35 unit on incubation. Conversely, where OD450 increases by more than 0.2 AU and OD590 decreases by more than 0.35 unit after incubation, corresponding to a colour shift from purple to yellow, the test system allows bacterial growth and is not deemed efficacious, four replicate measurements in the same plate have been made for each test system. The number of replicate wells showing either bacterial growth or no growth is also readily assessed by eye by following the colour change.
Dose responses for individual components and binary mixtures of actives at a fixed concentration ratio were generated by sequential dilution of liquors with further surfactant solution to obtain a series of endpoints.
In some selected cases, the combinations were also tested at the weight ratio 1:1.

[3] = tested on: Escherichia coli (E. coli—ATCC #10536); test: Synergy tests: high resolution MBC microtiter plate assay, 15 seconds contact, phosphate buffer containing […] dipropylene glycol; details: E. coli 10536; for SI (Synergy Index = Qa/QA + Qb/QB): at Qa and Qb, <1 synergy, 1 additivity, >1 antagonism
From the text: The concentrations and ratios may also vary under different test conditions or with different test methods.
One measure of synergy is the industrially accepted method described by Kull, F. C.; Eisman, P. C.; Sylwestrowicz, H. D. and Mayer, R. L., in Applied Microbiology 9:538-541 (1961), using the ratio determined by the formula: Qa/QA+Qb/QB=Synergy Index (“SI”) wherein: • QA=concentration of compound A (first component) in percent, acting alone, which produced an end point (MBC of Compound A). • Qa=concentration of compound A in percent, in the mixture, which produced an end point. • QB=concentration of compound B (second component) in percent, acting alone, which produced an end point (MBC of Compound B). • Qb=concentration of compound B in percent, in the mixture, which produced an end point.
When the sum of Qa/QA and Qb/QB is greater than one, antagonism is indicated. […] The lower the SI, the greater is the synergy shown by that particular mixture. The minimum biocidal concentration (MBC) of a microbicide is the lowest concentration tested under a specific set of conditions that provides complete kill of the tested microorganisms.
Synergy tests were conducted using standard microtiter plate assays with phosphate buffer containing 3.5% dipropylene glycol (DPG). In this method, a wide range of combinations of chemicals was tested by conducting high resolution MBC assays of Component (A) in the presence of various concentrations of Component (B). High resolution MBCs were determined by adding varying amounts of microbicide to one column of a microtiter plate and doing subsequent […] dilutions using an automated liquid handling system to obtain a series of closely spaced endpoints. The MBC plate was inoculated one column at a time with the test microorganism. An aliquot of the inoculated well was transferred at 15 seconds to a plate containing a neutralizing agent (D/E Neutralizing Broth), mixed and held for 5 minutes before being transferred to a growth plate containing trypticase soy broth (TSB). The TSB plate was incubated at 37° C. and read for the presence/absence of growth at 24 hours. The lowest level tested that provided complete kill (as evidenced by no growth in the microtitre plate) of the test organisms in 15 seconds is the minimum biocidal concentration (MBC).
The synergy of the combinations of the present invention was determined against a bacterium, Escherichia coli (E. coli—ATCC #10536), at a concentration of approximately 1×10^8 bacteria, per mL. This microorganism is representative of natural contaminants in many consumer and industrial applications.

[4] = single active alone at 0.2% w/v
[5] = single active alone at 0.3% w/v
[6] = single active alone at 0.1% w/v
[7] = single active alone at 0.175% w/v

CC1=CC[C@@H](CO)[C@H](C)C1 (relative stereo) [Floralol, Trans-4,6-dimethyl-3-Cyclohexene-1-methanol]
NMBS ([1]; 0.3% w/v, E. coli): 0 log CFU/ml
NMBS ([1]; 0.4% w/v, E. coli): 0 log CFU/ml
MBC (minimum biocidal concentration) ([1]; E. coli, in water, component alone): 0.3 % w/v
NMBS ([1]; […] w/v, E. coli): 7.92 log CFU/ml
MBC of antimicrobial alcohol ([1]; antimicrobial alcohol alone, complete bacterial kill against E. coli): 0.3 % (w/v)
MBC [2]: 4000 µg/mL
No. of replicates showing growth (out of 4) [2, 4]: 4
Δ OD 450 nm = OD450 (time = 16 hours) − OD450 (time zero), Mean [2, 4]: −1.43
Δ OD 590 nm OD590 (time = 16 hours) − OD590 (time zero), Mean [2, 4]: 0.35
No. of replicates showing growth (out of 4) [2, 5]: 4
Δ OD 450 nm = OD450 (time = 16 hours) − OD450 (time zero), Mean [2, 5]: −1.20
Δ OD 590 nm OD590 (time = 16 hours) − OD590 (time zero), Mean [2, 5]: 0.55
No. of replicates showing growth (out of 4) ([2]; single active alone at […] w/v): 1
Δ OD 450 nm = OD450 (time = 16 hours) − OD450 (time zero), Mean ([2]; single active alone at […] w/v): −0.29
Δ OD 590 nm OD590 (time = 16 hours) − OD590 (time zero), Mean ([2]; single active alone at […] w/v): 0.23

CC1=CC(C)C(CO)C(C)C1 (stereo not shown) [2,4,6-trimethyl-3-cyclohexene-1-methanol]
SI (Synergy Index = Qa/QA + Qb/QB) [3]: 1.00
MBC [2]: 4000 µg/mL
No. of replicates showing growth (out of 4) [2, 4]: 4
Δ OD 450 nm = OD450 (time = 16 hours) − OD450 (time zero), Mean [2, 4]: −1.50
Δ OD 590 nm OD590 (time = 16 hours) − OD590 (time zero), Mean [2, 4]: 0.29
No. of replicates showing growth (out of 4) ([2]; single active alone at […] w/v): 4

CC1=CCC(C(C)CO)CC1 (stereo not shown) [2-(4-methylcyclohex-3-enyl)propan-1-ol]
SI (Synergy Index = Qa/QA + Qb/QB) [3]: 1.00

CCCc1ccccc1O [2-propyl phenol]
MBC of phenolic compound ([1]; phenolic compound alone, complete bacterial kill against E. coli): 0.125 % (w/v)

CCC(C)c1ccccc1O (stereo not shown) [2-sec-butyl phenol]
MBC of phenol [2]: 0.175 % (w/v)

CCC(C)c1ccccc1O (stereo not shown) [2-sec-butylphenol]
No. of replicates showing growth (out of 4) [2, 6]: 4
Δ OD 450 nm = OD450 (time = 16 hours) − OD450 (time zero), Mean [2, 6]: −1.44
Δ OD 590 nm OD590 (time = 16 hours) − OD590 (time zero), Mean [2, 6]: 0.36

CC(C)(C)c1ccccc1O [2-ter-butylphenol]
No. of replicates showing growth (out of 4) [2, 7]: 4
Δ OD 450 nm = OD450 (time = 16 hours) − OD450 (time zero), Mean [2, 7]: −1.08
Δ OD 590 nm OD590 (time = 16 hours) − OD590 (time zero), Mean [2, 7]: 0.57

Cc1ccc(C(C)(C)C)c(O)c1 [2-tert-butyl-5-methylphenol]
MBC of phenol [2]: 0.2 % (w/v)

CC(C)(C)c1ccccc1O [2-tert-butylphenol]
SI (Synergy Index = Qa/QA + Qb/QB) [3]: 1.00

CC(C)(C)c1cccc(O)c1 [3-tert-butylphenol]
SI (Synergy Index = Qa/QA + Qb/QB) [3]: 1.00
MBC of the component acting alone (QA or QB) ([3]; component alone, complete kill in 15 seconds): 0.3 weight %
